In series [1] the target is T1, CDK7/cyclin H/MAT1 (Homo sapiens, UniProt P50613).
T1 construct: purchased ProQinase GmbH (Freiburg, Germany)
The series can be described thus: Kinase inhibition assay, recombinant kinase, [γ-33P]ATP. The series is classed as biochemical. The note with it: read-out: Residual kinase activity, CDK7. How it is done: (§1) CDK2/Cyclin E kinase was produced in Sf9 insect cells via baculoviral infection and purified on a NiNTA column (Qiagen). CDK5/p35, CDK7Cyclin H/MAT1 and CDK9/Cyclin T1 was purchased from ProQinase GmbH. The kinase reactions were assayed with 1 mg/mL histone H1 (for CDK2 and CDK5) or (YSPTSPS)2KK peptide (for CDK7 and CDK9) in the presence of 15/0.15/1.5/1.5 μM ATP (for CDK2/CDK5/CDK7CDK9), 0.05 μCi [γ-^33P]ATP and of the test compound in a final volume of 10 μL, all in a reaction buffer (60 mM HEPES-NaOH, pH 7.5, 3 mM MgCl2, 3 mM MnCl2, 3 μM Na-orthovanadate, 1.2 mM DTT, 2.5 μg/50 μl PEG20,000). The reactions were stopped by adding 5 μL of 3% aq H3PO4. Aliquots were spotted onto P-81 phosphocellulose (Whatman), washed 3× with 0.5% aq H3PO4 and finally air-dried.
(§2) CDK1/cyclin B and CDK2/cyclin E kinases were produced in Sf9 insect cells via baculoviral infection, while CDK5/p35, CDK7/cyclin H/MAT1, and CDK9/cyclin T1 were purchased from ProQinase (Freiburg, Germany) and assayed as described previously (35). The kinase reactions were assayed with 1 mg/ml histone H1 (for CDK2 and CDK5) or (YSPTSPS)2KK peptide (for CDK7 and CDK9) in the presence of 15/0.15/1.5/1.5 […] ATP (for CDK2/CDK5/CDK7CDK9), […] [γ-^33P]ATP and of the test compound in a final volume of […]. The reaction buffer contained 60 mM HEPES-NaOH, pH 7.5, 3 mM MgCl2, 3 mM MnCl2, 3 mM Na-orthovanadate, 1.2 mM DTT, 2.5 mg/50 ml PEG20.000. The reactions were stopped by adding […] of 3% H3PO4. Aliquots were spotted onto P-81 phosphocellulose (Whatman, GE Healthcare Biosciences, Pittsburgh, USA), washed 3 times with 0.5% H3PO4 and finally air-dried. Kinase inhibition was quantified using a FLA-7000 digital image analyzer (Fujifilm, Tokyo, Japan).

For series [2], the target named is T2, CDK5/p35 (Homo sapiens, UniProt Q00535).
T2 construct: purchased ProQinase GmbH (Freiburg, Germany)
The series is described as above. The series is classed as biochemical. The settings on record: read-out: Residual kinase activity, CDK5. As to the method: as §1, §2

The target of series [3] is T3, CDK9/Cyclin T1 (Homo sapiens, UniProt P50750).
T3 construct: purchased ProQinase GmbH (Freiburg, Germany)
The description is as above. The class given is biochemical. The settings on record: read-out: Residual kinase activity, CDK9. How it is done:
as §1, §2

Series [4] relates to p53-regulated transcription in Arn8 cells. As to the kind of experiment: p53-dependent transcriptional activity, β-galactosidase reporter. The series is classed as cell-based. The settings on record: 24 h incubation. As to the method: Stronger anticancer activity of the compounds is enhanced by its positive impact on stability and activity of the tumour suppressor p53. To measure p53-dependent transcriptional activity, β-galactosidase activity was quantified in the melanoma cell line Arn8, which had been established using stable transfection of cells with a p53-responsive reporter construct pRGCAfoslacZ (Frebung et al., Cancer Res., 52, 1992-6976). Briefly, after 24 h incubation with the inhibitors the Arn8 cells were permeabilized with 0.3% Triton X-100 for 15 min and then 4-methylumbelliferon-β-D-galactopyranoside was added as a substrate to the final concentration of 80 μM. After 1 h the fluorescence of product 4-methylumbelliferon was measured at 355/460 nm (ex/em) with a Fluoroskan Ascent microplate reader (Labsystems). Data in Tab. 8 present that series of 2-substituted-6-biarylmethylamino-9-cyclopentyl-9H-purine derivatives show a dose-dependent activatory effect on p53-regulated transcription, with the maximum impact observed between 100 and 500 nM concentrations for most of prepared compounds (Tab. 8).

Series [5] has as its system caspase-3/7 activity in Hep3B cell line. The series can be described thus: One-step cellular caspase-3/7 activity assay. The series is classed as cell-based, human. The note with it: 24 hours, 0 nM = 1.00. How it is done: (§3) Measurements of proapoptotic properties of new compounds were based on quantification of enzymatic activities of caspases, concretely caspases-3/7. Activity of cellular caspase-3/7 was measured according to Carrasco et al., 2003, BioTechniques, 34(5): 1064-67. Briefly, Hep3B and PLC/PRF/5 cells were incubated in the densities of 10000 cells/well in a 96-well plate overnight. Next day, the compounds in appropriate concentrations were added and cells were incubated for the 24 hours. After incubation, 3× caspase-3/7 assay buffer (150 mM HEPES pH 7.4, 450 mM NaCl, 150 mM KCl, 30 mM MgCl2, 1.2 mM EGTA, 1.5% Nonidet P40, 0.3% CHAPS, 30% sucrose, 30 mM DTT, 3 mM PMSF) with 150 μM Ac-DEVD-AMC as a substrate (Sigma-Aldrich) was added to the wells and plates were incubated at […]. The caspase-3/7 activity was measured after 6 hours using Fluoroskan Ascent microplate reader (Labsystems) at 346 nm/442 nm (excitation/emission).

Series [6] has as its system caspase-3/7 activity in PLC/PRF/5 cell line. The series can be described thus: One-step cellular caspase-3/7 activity assay. The class given is cell-based, human. The note with it: 24 hours incubation, relative to 0 nM = 1.00. As to the method: as §3

Each structure is given as a SMILES string.

T1 sequence (P50613 whole entry): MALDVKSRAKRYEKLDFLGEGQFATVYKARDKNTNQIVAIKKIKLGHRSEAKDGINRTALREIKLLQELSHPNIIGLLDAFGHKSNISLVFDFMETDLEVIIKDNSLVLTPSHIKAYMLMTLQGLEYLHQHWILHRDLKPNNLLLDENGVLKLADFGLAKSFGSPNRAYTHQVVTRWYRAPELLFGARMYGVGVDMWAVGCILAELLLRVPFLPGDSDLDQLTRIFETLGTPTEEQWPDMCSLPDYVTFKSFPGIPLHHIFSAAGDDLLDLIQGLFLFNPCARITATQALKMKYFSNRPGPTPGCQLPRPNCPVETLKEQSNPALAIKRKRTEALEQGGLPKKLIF
T1 sequence (P51946 whole entry partner): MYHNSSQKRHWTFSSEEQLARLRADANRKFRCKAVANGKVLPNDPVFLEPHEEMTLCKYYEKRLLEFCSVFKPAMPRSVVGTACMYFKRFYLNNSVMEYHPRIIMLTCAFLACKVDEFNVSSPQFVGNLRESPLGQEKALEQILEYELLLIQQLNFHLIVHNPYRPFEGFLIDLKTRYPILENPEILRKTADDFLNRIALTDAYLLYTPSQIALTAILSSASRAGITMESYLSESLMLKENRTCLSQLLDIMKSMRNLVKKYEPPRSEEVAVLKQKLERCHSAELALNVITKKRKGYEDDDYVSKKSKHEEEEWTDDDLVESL
T1 sequence (P51948 whole entry partner): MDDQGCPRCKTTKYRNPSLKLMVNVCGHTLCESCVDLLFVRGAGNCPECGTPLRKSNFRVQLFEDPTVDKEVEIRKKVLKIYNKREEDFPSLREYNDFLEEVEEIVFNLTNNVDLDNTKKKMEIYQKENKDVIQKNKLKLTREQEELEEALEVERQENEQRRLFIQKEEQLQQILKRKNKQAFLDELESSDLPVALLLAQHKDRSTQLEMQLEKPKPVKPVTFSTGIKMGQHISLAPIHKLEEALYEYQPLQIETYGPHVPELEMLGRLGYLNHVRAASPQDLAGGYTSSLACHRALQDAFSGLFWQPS
T3 sequence (P50750 whole entry): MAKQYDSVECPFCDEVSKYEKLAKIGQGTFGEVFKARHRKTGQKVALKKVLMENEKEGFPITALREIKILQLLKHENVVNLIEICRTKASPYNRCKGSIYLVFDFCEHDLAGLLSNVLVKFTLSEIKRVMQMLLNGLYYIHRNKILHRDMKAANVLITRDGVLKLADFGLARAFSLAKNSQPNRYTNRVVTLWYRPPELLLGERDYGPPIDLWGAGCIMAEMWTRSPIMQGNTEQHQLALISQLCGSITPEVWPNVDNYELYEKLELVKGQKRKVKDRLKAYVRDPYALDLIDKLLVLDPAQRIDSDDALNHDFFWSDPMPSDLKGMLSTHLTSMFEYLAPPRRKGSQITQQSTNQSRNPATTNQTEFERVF
T3 sequence (O60563 whole entry partner): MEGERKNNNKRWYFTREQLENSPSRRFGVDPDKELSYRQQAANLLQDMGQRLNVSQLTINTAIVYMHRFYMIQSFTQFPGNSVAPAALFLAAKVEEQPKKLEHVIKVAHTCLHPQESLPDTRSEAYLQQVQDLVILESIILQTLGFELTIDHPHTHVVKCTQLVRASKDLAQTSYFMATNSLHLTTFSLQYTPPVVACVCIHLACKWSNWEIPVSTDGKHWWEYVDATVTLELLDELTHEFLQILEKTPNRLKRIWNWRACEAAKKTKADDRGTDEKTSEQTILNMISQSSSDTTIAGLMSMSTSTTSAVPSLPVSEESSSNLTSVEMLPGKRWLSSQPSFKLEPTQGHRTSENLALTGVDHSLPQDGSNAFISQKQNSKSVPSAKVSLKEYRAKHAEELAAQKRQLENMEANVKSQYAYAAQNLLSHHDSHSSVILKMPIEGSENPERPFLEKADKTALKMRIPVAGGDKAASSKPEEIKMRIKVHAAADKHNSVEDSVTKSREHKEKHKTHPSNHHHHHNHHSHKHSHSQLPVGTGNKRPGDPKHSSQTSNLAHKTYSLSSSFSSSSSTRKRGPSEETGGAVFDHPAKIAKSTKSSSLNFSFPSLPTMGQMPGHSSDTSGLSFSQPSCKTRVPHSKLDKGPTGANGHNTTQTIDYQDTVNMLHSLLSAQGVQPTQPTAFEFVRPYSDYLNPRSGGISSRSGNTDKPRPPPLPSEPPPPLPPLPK
T2 sequence (Q00535 whole entry): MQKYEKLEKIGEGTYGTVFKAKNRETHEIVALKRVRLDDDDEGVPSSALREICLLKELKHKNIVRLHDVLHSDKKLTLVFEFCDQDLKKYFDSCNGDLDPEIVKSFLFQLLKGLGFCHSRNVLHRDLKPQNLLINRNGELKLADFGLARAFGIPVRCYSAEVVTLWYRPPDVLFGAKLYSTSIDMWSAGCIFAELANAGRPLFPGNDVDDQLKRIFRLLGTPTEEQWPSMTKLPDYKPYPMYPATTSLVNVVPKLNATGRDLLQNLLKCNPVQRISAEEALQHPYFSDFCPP
T2 sequence (Q15078 whole entry partner): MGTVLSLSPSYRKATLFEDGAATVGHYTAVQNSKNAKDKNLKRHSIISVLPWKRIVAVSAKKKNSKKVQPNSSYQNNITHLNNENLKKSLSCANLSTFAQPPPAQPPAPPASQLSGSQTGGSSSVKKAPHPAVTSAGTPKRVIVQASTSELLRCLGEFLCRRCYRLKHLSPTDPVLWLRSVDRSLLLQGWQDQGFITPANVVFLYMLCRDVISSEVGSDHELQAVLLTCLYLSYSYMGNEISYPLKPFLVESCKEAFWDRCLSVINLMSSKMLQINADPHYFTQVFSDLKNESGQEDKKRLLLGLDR

On to `CC(C)(O)CNc1nc(NCc2ccc(-c3ccco3)nc2)c2ncn(C3CCCC3)c2n1` [BP117, 1-{9-cyclopentyl-6-[(6-furan-2-yl-pyridin-3-ylmethyl)-amino]-9H-purine-2-ylamino}-2-methyl-propan-2-ol], for which the melting point (commonly the temperature, or range, at which the solid turns liquid) was 128 to 129 °C. Also, the remaining activity at 0.1 µM in series [1] (100 nM) stood at 76.3%. Moreover, the remaining activity at 1 µM in series [1] (1000 nM) came out at 68.3%. The remaining activity at 0.1 µM in series [2] (100 nM) is 76.7%. The remaining activity at 1 µM in series [2] (1000 nM) worked out at 39.6%. Besides, the remaining activity at 0.1 µM in series [3] (100 nM) was found to be 52.7%. Moreover, in series [3] (1000 nM), the remaining activity at 1 µM was 23.2%. For the same compound, the “Concentration of maximum activation” value in series [4] amounted to 950 nM. The “Relative caspase-3/7 activity in Hep3B cell line” value in series [5] (200 nM) came out at 0.77. In series [5] (400 nM), the “Relative caspase-3/7 activity in Hep3B cell line” value stood at 0.89. For the same compound, the “Relative caspase-3/7 activity in Hep3B cell line” value in series [5] (800 nM) was 1.06. In series [5] (1600 nM), the “Relative caspase-3/7 activity in Hep3B cell line” value was found to be 2.00. In addition, the “Relative caspase-3/7 activity in PLC/PRF/5 cell line” value in series [6] (compound concentration 160 nM) is 0.79. In addition, in series [6] (compound concentration 320 nM), the “Relative caspase-3/7 activity in PLC/PRF/5 cell line” value was found to be 1.17. Besides, the “Relative caspase-3/7 activity in PLC/PRF/5 cell line” value in series [6] (compound concentration 640 nM) came out at 2.60. Moreover, the “Relative caspase-3/7 activity in PLC/PRF/5 cell line” value in series [6] (compound concentration 1280 nM) is listed as 2.99.

For the origin of these results see patent US20150368248A1, “2-SUBSTITUTED-6-BIARYLMETHYLAMINO-9-CYCLOPENTYL-9H-PURINE DERIVATIVES, USE THEREOF AS MEDICAMENTS, AND PHARMACEUTICAL COMPOSITIONS” (UNIVERZITA PALACKEHO V OLOMOUCI, priority 2013, published 2015).
